Reference: article PMC13376213, “Systematic discovery of motif-based interactions of the auxiliary domains of USP family deubiquitinases” (Nature Communications, 2026)
Like-named read-outs stand apart in the source and are kept apart here. Peptide text beside a SMILES is read from it. * marks the point of attachment. FITC = O=C1OC2(c3ccc(O)cc3Oc3cc(O)ccc32)c2ccc(NC(=S)*)cc21

How the values were obtained:
Assay type in all cases: binding
USP22 zf-UBP domain = target: T1, USP22 zf-UBP domain (Homo sapiens, UniProt Q9UPT9); assay: FP-monitored affinity measurements, USP22 zf-UBP; conditions: USP22_zf-UBP
T1 construct: USP22_zf-UBP; Q9UPT9; zf-UBP; 37; 130; 6xHis-GST (N, cleaved yes); made in house; host or cells: Escherichia coli BL21-Gold (DE3)
T1 sequence (Q9UPT9 37-130): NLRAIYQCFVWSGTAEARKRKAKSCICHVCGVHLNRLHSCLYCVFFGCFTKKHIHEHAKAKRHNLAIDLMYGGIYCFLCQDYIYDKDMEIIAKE
Protocol: (§1) Proteins were expressed in Escherichia coli (E.coli) BL21-Gold (DE3) bacteria. The cDNAs encoding N-terminal 6-histidine-glutathione S-transferase tagged (6xHis-GST), 6xHis-tagged or GST-tagged protein domains in pETM33, pETM11, pGEX6P1 expression vectors respectively, were obtained from Genescript or kindly provided by MRC-PPU (Suppl. Data 1) The bacteria were transformed with the plasmid and grew at 37 °C in 2YT (5 g/L NaCl, 16 g/L tryptone and 10 g/L yeast extract) supplemented with Kanamycin (30 μg/mL) until reaching an OD600 of 0.7. Protein expression was induced with 0.3 mM isopropyl β-D-1 thiogalactopyranoside (IPTG) for 18 h at 18 °C while shaking. For zinc-finger domains, 50 μM of ZnSO4 was added during expression. The bacterial cultures were pelleted for 15 minutes at 4000 x g at 4 °C and stored at −20 °C until purification. The pellets were resuspended in lysis buffer (1× phosphate-buffered saline (PBS), 0.5 % Triton-X, 5 mM MgCl2, 10 μg/mL lysozyme, cOmplete^TM EDTA-free protease inhibitor cocktail (Roche), 10 μg/mL DNAseI) and incubated for 1 h shaking at 4 °C. […] The supernatant was incubated with glutathione (GSH) Sepharose (Cytiva) or Ni2+ Sepharose (Cytiva) for 1 h at 4 °C while shaking. The beads with the bound protein were washed with 1x PBS and eluted with 10 mM reduced glutathione in 50 mM Tris pH 8.0. For fluorescence polarization experiments, the proteins were not eluted from the beads, and the 6xHis-GST tag was cleaved overnight on GSH Sepharose beads at 4 °C while shaking with PreScission Protease in cleavage buffer (50 mM Tris pH 7.5, 150 mM NaCl, 1 mM DTT). The sample containing the cleaved domain was separated from the tag and protease and buffer-exchanged to 50 mM sodium phosphate buffer pH 7.4 with 1 mM DTT using a PD-10 desalting column (Cytiva). The purity and size of the proteins were analyzed by SDS-PAGE electrophoresis.
(§2) The measurements were performed at room temperature in a non-binding black half area 96-well plate (Corning) with a total volume of 50 μL per well. Peptides were obtained from GeneCust (France) with >95% purity. FITC-labeled peptides (N-terminally FITC-labeled without spacer and C-terminally amidated) were dissolved in dimethyl sulfoxide (DMSO), and unlabeled peptides (N-terminally acetylated and C-terminally amidated) were dissolved in 50 mM phosphate buffer pH 7.4. Saturation measurements were performed using a serial dilution of the protein domains in phosphate buffer (25 μL) and the addition of 10 nM FITC-labeled peptide (in phosphate buffer supplemented with 2 mM DTT) (25 μL). […] All measurements were performed in three technical replicates. The data were analyzed using GraphPad Prism version 9.2.0 for MacOS (GraphPad Software, San Diego, California USA, www.graphpad.com). The saturation curves were fitted to the quadratic equation, and the displacement curves were fitted to a sigmoidal dose-response equation as described previously.

USP20 DUSP2 K833E-K835E = target: T2, USP20 DUSP2 K833E-K835E (Homo sapiens, UniProt Q9Y2K6, K833E/K835E); assay: FP-monitored affinity measurements, USP20 DUSP2 double mutant
T2 construct: USP20_DUSP2; Q9Y2K6; DUSP2; 776; 894; 6xHis-GST (N, cleaved yes); made in house; host or cells: Escherichia coli BL21-Gold (DE3)
Protocol: (§3) Proteins were expressed in Escherichia coli (E.coli) BL21-Gold (DE3) bacteria. The cDNAs encoding N-terminal 6-histidine-glutathione S-transferase tagged (6xHis-GST), 6xHis-tagged or GST-tagged protein domains in pETM33, pETM11, pGEX6P1 expression vectors respectively, were obtained from Genescript or kindly provided by MRC-PPU (Suppl. Data 1) The bacteria were transformed with the plasmid and grew at 37 °C in 2YT (5 g/L NaCl, 16 g/L tryptone and 10 g/L yeast extract) supplemented with Kanamycin (30 μg/mL) until reaching an OD600 of 0.7. Protein expression was induced with 0.3 mM isopropyl β-D-1 thiogalactopyranoside (IPTG) for 18 h at 18 °C while shaking. For zinc-finger domains, 50 μM of ZnSO4 was added during expression. […] For fluorescence polarization experiments, the proteins were not eluted from the beads, and the 6xHis-GST tag was cleaved overnight on GSH Sepharose beads at 4 °C while shaking with PreScission Protease in cleavage buffer (50 mM Tris pH 7.5, 150 mM NaCl, 1 mM DTT). […] The purity and size of the proteins were analyzed by SDS-PAGE electrophoresis.
(§4) The measurements were performed at room temperature in a non-binding black half area 96-well plate (Corning) with a total volume of 50 μL per well. […] The data were analyzed using GraphPad Prism version 9.2.0 for MacOS (GraphPad Software, San Diego, California USA, www.graphpad.com). […]

USP20 DUSP2 N805A = target: T3, USP20 DUSP2 N805A (Homo sapiens, UniProt Q9Y2K6, N805A); assay: FP-monitored affinity measurements, USP20 DUSP2 single mutant
T3 construct: USP20_DUSP2; Q9Y2K6; DUSP2; 776; 894; 6xHis-GST (N, cleaved yes); made in house; host or cells: Escherichia coli BL21-Gold (DE3)
Protocol: as §3, §4

USP11 DUSP-UBL domain = target: T4, USP11 DUSP-UBL domain (Homo sapiens, UniProt P51784); assay: FP-based affinity measurements, USP11 DUSP-UBL
T4 construct: USP11_UBL; P51784; UBL; 6xHis-GST (N, cleaved yes); made in house; host or cells: Escherichia coli BL21-Gold (DE3)
Protocol: as §1
as §2, with “The saturation curves were fitted to the quadratic equation, and the displacement curves were fitted to a sigmoidal dose-response equation as described previously.” left out

USP20 DUSP2 domain = target: T5, USP20 DUSP2 domain (Homo sapiens, UniProt Q9Y2K6); assay: FP-monitored affinity measurements, USP20 DUSP2; conditions: USP20_DUSP2; direct FP titration (saturation) of the FITC-labelled peptide; read-out: KD
T5 construct: USP20_DUSP2; Q9Y2K6; DUSP2; 776; 894; 6xHis-GST (N, cleaved yes); made in house; host or cells: Escherichia coli BL21-Gold (DE3)
Protocol: as §1, §2

T4 sequence (P51784 67-288): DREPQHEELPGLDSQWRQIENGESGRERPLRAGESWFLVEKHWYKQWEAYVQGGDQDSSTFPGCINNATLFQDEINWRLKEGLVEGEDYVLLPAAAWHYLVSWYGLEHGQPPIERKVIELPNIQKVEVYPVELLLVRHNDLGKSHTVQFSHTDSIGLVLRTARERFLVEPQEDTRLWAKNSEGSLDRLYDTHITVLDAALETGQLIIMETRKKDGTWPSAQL
T2 sequence (Q9Y2K6 with tags, fused parts or gaps K833E/K835E): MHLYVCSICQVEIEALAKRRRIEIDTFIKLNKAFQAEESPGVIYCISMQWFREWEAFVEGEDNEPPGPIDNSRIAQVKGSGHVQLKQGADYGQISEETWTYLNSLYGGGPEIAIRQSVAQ
T3 sequence (Q9Y2K6 with tags, fused parts or gaps N805A): as the sequence (Q9Y2K6 with tags, fused parts or gaps K833E/K835E) above, with N31A, E59K, E61K counted along it
T5 sequence (Q9Y2K6 with tags, fused parts or gaps): as the sequence (Q9Y2K6 with tags, fused parts or gaps K833E/K835E) above, with E59K, E61K counted along it

`CC[C@H](C)[C@H](NC(=O)[C@H](Cc1c[nH]c2ccccc12)NC(=O)[C@H](CO)NC(=O)[C@H](CO)NC(=O)[C@H](Cc1c[nH]c2ccccc12)NC(=O)[C@@H]1CCCN1C(=O)[C@H](CCCCN)NC(=O)CNC(=O)[C@H](CC(C)C)NC(=O)[C@H](Cc1ccccc1)NC(=O)[C@H](C)NC(=O)[C@H](CCC(=O)O)NC(=O)[C@@H]1CCCN1C(=O)[C@H](CO)NC(=O)[C@@H]1CCCN1C(=O)[C@@H](NC(=S)Nc1ccc2c(c1)C(=O)OC21c2ccc(O)cc2Oc2cc(O)ccc21)C(C)C)C(=O)N[C@@H](CC(=O)O)C(=O)N[C@@H](C)C(=O)N[C@@H](C)C(=O)N[C@@H](CCCCN)C(=O)N[C@@H](CC(C)C)C(=O)N[C@@H](Cc1c[nH]cn1)C(N)=O` [FITC-ATXN7L1_36-57] ({FITC}-VPSPEAFLGKPWSSWIDAAKLH-NH2) gave a Kd (USP22 zf-UBP domain; direct FP titration (saturation) of the FITC-labelled peptide) of 1 µM.

`CC[C@H](C)[C@H](NC(=O)[C@H](CC(N)=O)NC(=O)[C@H](Cc1c[nH]c2ccccc12)NC(=O)[C@H](C)NC(=O)[C@H](CC(C)C)NC(=O)[C@H](CC(=O)O)NC(=O)[C@H](CC(=O)O)NC(=O)[C@H](CC(=O)O)NC(=O)[C@H](CO)NC(=S)Nc1ccc2c(c1)C(=O)OC21c2ccc(O)cc2Oc2cc(O)ccc21)C(=O)N[C@@H](C)C(=O)N1CCC[C@H]1C(=O)N[C@@H](CCC(N)=O)C(=O)NCC(=O)N[C@@H](CC(C)C)C(=O)N[C@@H](CCC(N)=O)C(N)=O` [FITC-GPR137B348-362] ({FITC}-SDDDLAWNIAPQGLQ-NH2) showed a Kd (USP20 DUSP2 K833E-K835E; FP, FITC-labeled probe peptide, double mutant domain (Fig. 5F), technical triplicate, read-out: KD, USP20 DUSP2 K833E-K835E with FITC-labeled probe peptide) of over 290 µM and a Kd (USP20 DUSP2 N805A; FP, FITC-labeled probe peptide, single mutant domain (Fig. 5F), technical triplicate, read-out: KD, USP20 DUSP2 N805A with FITC-labeled probe peptide) of over 130 µM.

`CC[C@H](C)[C@H](NC(=O)[C@H](Cc1c[nH]c2ccccc12)NC(=O)[C@H](CC(=O)O)NC(=O)[C@@H]1CCCN1C(=O)[C@H](Cc1ccc(O)cc1)NC(=O)[C@@H](NC(=O)[C@@H](NC(=O)[C@H](C)NC(=O)[C@H](CO)NC(=S)Nc1ccc2c(c1)C(=O)OC21c2ccc(O)cc2Oc2cc(O)ccc21)C(C)C)[C@@H](C)O)C(=O)NCC(=O)N[C@@H](CCC(N)=O)C(=O)N[C@@H](CO)C(=O)N[C@@H](Cc1ccc(O)cc1)C(=O)N[C@@H](CO)C(=O)N[C@@H](CCC(=O)O)C(=O)N[C@H](C(N)=O)C(C)C` [FITC-ORA1] ({FITC}-SAVTYPDWIGQSYSEV-NH2) gave a Kd (USP11 DUSP-UBL domain; FP saturation, FITC-labeled peptide, technical triplicates, read-out: KD, USP11 DUSP-UBL, labeled peptide (direct binding)) of over 290 µM.

For `CC[C@H](C)[C@H](NC(=O)[C@H](Cc1c[nH]c2ccccc12)NC(=O)[C@H](CC(=O)O)NC(=O)[C@@H]1CCCN1C(=O)[C@H](Cc1ccc(O)cc1)NC(=O)[C@@H](NC(=O)[C@@H](NC(=O)[C@H](C)NC(=O)[C@H](CO)NC(=S)Nc1ccc2c(c1)C(=O)OC21c2ccc(O)cc2Oc2cc(O)ccc21)C(C)C)[C@@H](C)O)C(=O)NCC(=O)N[C@@H](CCC(N)=O)C(=O)N[C@@H](CO)C(=O)N[C@@H](Cc1ccc(O)cc1)C(=O)N[C@@H](CO)C(=O)N[C@@H](CCC(=O)O)C(=O)N[C@H](C(N)=O)C(C)C` [FITC-ORAI1] ({FITC}-SAVTYPDWIGQSYSEV-NH2), the Kd (USP11 DUSP-UBL domain; USP11_DUSP_UBL, direct FP titration (saturation) of the FITC-labelled peptide, read-out: KD) was about 294 µM.

For `CC[C@H](C)[C@H](NC(=O)[C@H](CC(N)=O)NC(=O)[C@H](Cc1c[nH]c2ccccc12)NC(=O)[C@H](C)NC(=O)[C@H](CC(C)C)NC(=O)[C@H](CC(=O)O)NC(=O)[C@H](CC(=O)O)NC(=O)[C@H](CC(=O)O)NC(=O)[C@H](CO)NC(=S)Nc1ccc2c(c1)C(=O)OC21c2ccc(O)cc2Oc2cc(O)ccc21)C(=O)N[C@@H](C)C(=O)N1CCC[C@H]1C(=O)N[C@@H](CCC(N)=O)C(=O)NCC(=O)N[C@@H](CC(C)C)C(=O)N[C@@H](CCC(N)=O)C(N)=O` [FITC_GPR137B] ({FITC}-SDDDLAWNIAPQGLQ-NH2), the Kd (USP20 DUSP2 K833E-K835E; USP20_DUSP2_K833E/K835E, direct FP titration (saturation) of the FITC-labelled peptide, read-out: KD) was about 293 µM, the Kd (USP20 DUSP2 domain) was 5.14 µM and the Kd (USP20 DUSP2 N805A; USP20_DUSP2_N805A, direct FP titration (saturation) of the FITC-labelled peptide, read-out: KD) was about 140 µM.

Ac-SAVTYPDWIGQSYSEV-NH2 [ORAI1_USP11] gave a Kd (USP11 DUSP-UBL domain; USP11_DUSP_UBL, FP displacement of the FITC-labelled peptide by unlabelled peptide, read-out: KD) of about 207 µM.

For “Ac-VPSLDDFAGQSWSSWVE-NH2 [ATXN7L2_18-34]”, the Kd (USP22 zf-UBP domain; FP displacement by unlabelled peptide) was 19.3 µM.
